Experimental data from US20250295790A1, “LECTIN-TARGETING CONJUGATES” (Helmholtz-Zentrum für Infektionsforschung GmbH, priority 2021, published 2025).
Converted amounts (≈) assume the structure as drawn. “Also recorded” adds a separate entry of the source. Like-named read-outs stand apart in the source and are kept apart here.

How the values were obtained:
P. aeruginosa PA14 = assay: Antibiotic susceptibility (MIC assay, broth microdilution); assay type: cell-based, Pseudomonas aeruginosa PA14
Description: Bacterial strains were streaked on LB-agar plates (1% agar) from glycerol stocks and incubated at 37° C. overnight. Colonies were picked from plate and dispersed in fresh MiGler-Hinton broth II (MHB II) to yield an OD600 of 0.08-0.13. This dispersion was diluted 1:100 in fresh MHB II, which was then used for the assay to achieve a final inoculum of 5×10^5 CFU/mL. 50 μL inoculum was mixed with 50 μL of the serial dilution in the corresponding well of the 96-well plate.
The different matrices were prepared under sterile conditions: (i) 5 mL human plasma and 1 mL sterile filtrate from an P. aeruginosa PA14 overnight culture in LB were mixed with 4 mL PBS; (ii) 1 mL sterile filtrate from an P. aeruginosa PA14 overnight culture was diluted in 9 mL PBS; (iii) PBS only and (iv) 5 mL human plasma and 1 mL LB were mixed with 4 mL PBS. 6 L of each compound dilution series was diluted in 115 L matrix (˜-1:20 dilution) in a 96-well format at time point T=−3 h or T=−10 min.
The plates prepared at T=−3 h were sealed with gas-permeable foil and incubated at 37° C. in a humid incubator. The other plates were kept at room temperature. At T=0 h, 50 µL of each well was mixed with 50 μL incoculum (as described above) in double-concentrated MHBII in a sterile 96-well plate.
The plates were sealed with gas-permeable foil and incubated at 37° C. for 18-20 h in a humid incubator. Growth inhibition was assessed by visual inspection and given MIC values are the lowest concentration of antibiotic at which there was no visible growth.

[1] = Cleavage / stability in PA14-filtrate without human blood plasma; assay type: in vitro ADME, Pseudomonas aeruginosa PA14; details: up to 24 h
Description: (§1) P. aeruginosa PA14 was streaked on LB-agar plates (1% agar) from glycerol stocks and incubated at 37° C. overnight. 2-5 colonies were picked and dispersed in 10 mL LB (10 g/L trypton, 10 g/L NaCl, 5 g/L yeast extracts). This dispersion was incubated overnight at 37° C., 180 rpm under high humidity. The culture was centrifuged (4000 ref, room temperature, 10 min) and the supernatant was filtered (0.22 m pore size). […]
(§2) A 1 mM solution of the studied compound was prepared in PBS (150 mM NaCl, 2.6 mM KCl, 1.4 mM KH2PO4, 10 mM Na2HPO4, pH 7.4) with 20% DMSO. 50 μL of this solution was diluted in 950 μL matrix or human plasma (spiked with 10% LB) on ice. After brief vortex, 100 μL were immediately treated with 100 μL ice-cold MeCN (spiked with […] diphenhydramine as internal standard). The rest of the solution was incubated at 37° C. and 500 rpm in an eppendorf thermomixer. At various time points (30, 60, 120, 180 min), 100 L sample were taken and treated as described above. […] The AUC of the parent drug and its cleavage products and the internal standard was quantified using Compass QuantAnalysis quantification software. The relative AUC was calculated by AUC (compound)/AUC(ISTD). Procaine was used as a positive control as it readily degrades in human plasma.

[2] = Stability of conjugates in human blood plasma spiked with LB; assay type: in vitro ADME; details: 50% human blood plasma spiked with 10% LB, within three hours
Description: as §2

LecA [3] = target: T1, LecA (Pseudomonas aeruginosa, UniProt Q05097); assay: Competitive binding assay based on fluorescence polarization with LecA
T1 construct: made in house
T1 sequence (Q05097 whole entry): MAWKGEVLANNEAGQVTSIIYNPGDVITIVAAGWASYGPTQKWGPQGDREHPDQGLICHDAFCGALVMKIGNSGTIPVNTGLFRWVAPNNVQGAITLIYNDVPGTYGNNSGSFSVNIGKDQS
Description: LecA (according to Joachim et al.): A serial dilution of the test compounds was prepared in TBS/Ca (8.0 g/L NaCl, 2.4 g/L Tris, 0.19 g/L KCl, 0.15 g/L CaCl2·2 H2O), with 30% DMSO as co-solvent. […] The measured intensities were reduced by the values of only LecA in TBS/Ca and fluorescence polarization was calculated. The data was analysed with the MARS Data Analysis Software (BMG Labtech GmbH, Germany) and fitted according to the four-parameter variable slope model. Bottom and top plateaus were fixed according to the control compounds in each assay ((p-nitrophenyl)-p-D-galactoside) and the data was re-analysed with these values fixed. A minimum of three independent measurements on three plates was performed for each inhibitor.
Averages and standard deviations were calculated from at least three independent experiments.

[4] = Prodrug activation assay in human blood plasma spiked with P. aeruginosa PA14 culture supernatant; assay type: in vitro ADME, Pseudomonas aeruginosa PA14; details: 50% human blood plasma spiked with 10% P. aeruginosa culture supernatant, within 3 h
Description: In the prodrug activation assay, the bacterial strain Pseudomonas aeruginosa PA14 wt (DSM 19882) was used. The strain was obtained from the German Collection of Microorganisms and Cell Cultures (DSMZ).
as §1, §2

LecB PAO1 = LecB PAO1 (Pseudomonas aeruginosa, UniProt Q9HYN5); assay type: binding; details: target LecB PAO1; for Ki: calculated as Ki from IC50, read-out: Ki ± s.d.
Sequence of LecB PAO1 (Q9HYN5 entry or part of it): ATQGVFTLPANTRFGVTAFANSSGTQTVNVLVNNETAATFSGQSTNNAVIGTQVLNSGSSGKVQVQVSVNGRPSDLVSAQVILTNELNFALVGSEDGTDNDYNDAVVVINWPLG
Description: LecB (LecB PAO1 according to Hauck et al. and LecB PA14 according to Sommer et al.): A serial dilution of the test compounds was prepared in TBS/Ca, with 20% DMSO as cosolvent. […] Fluorescence was measured and analysed as for LecA. Bottom and top plateaus were fixed according to the control compound in each assay (1-fucose) and the data was re-analysed with these values fixed. A minimum of three independent measurements on three plates was performed for each inhibitor.

LecB PA14 = LecB PA14 (Pseudomonas aeruginosa, UniProt A0A0H2ZE85); assay type: binding; details: target LecB PA14
Sequence of LecB PA14 (A0A0H2ZE85 entry or part of it): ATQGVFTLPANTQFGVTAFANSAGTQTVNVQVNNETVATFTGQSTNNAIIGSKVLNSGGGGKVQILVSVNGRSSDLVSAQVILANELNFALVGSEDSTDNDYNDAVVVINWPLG
Description: LecB (LecB PAO1 according to Hauck et al. and LecB PA14 according to Sommer et al.): A serial dilution of the test compounds was prepared in TBS/Ca, with 20% DMSO as cosolvent. A concentrated solution of LecB PAO1 or PA14 was diluted in TBS/Ca together with the fluorescent reporter ligand (N-(fluorescein-5-yl)-N′-(α-l-fucopyranosyl ethylen)-thiocarbamide) to yield concentrations of 300 nM and 20 nM, respectively. 10 μL of this mix was added to 10 μL serial dilutions of the test compounds in a black 384-well microtiter plates (Greiner Bio-One, Germany, cat. no. 781900) in triplicates. After centrifugation (2680 ref, 1 min, room temperature), the reactions were incubated for 4-8 h at room temperature in a humidity chamber. Fluorescence was measured and analysed as for LecA. Bottom and top plateaus were fixed according to the control compound in each assay (1-fucose) and the data was re-analysed with these values fixed. A minimum of three independent measurements on three plates was performed for each inhibitor.

LecA [5] = target: T1, LecA; assay: Isothermal titration calorimetry with LecA; assay type: binding
Description: Isothermal titration calorimetry was performed on an iTC200 (Malvern Panalytical) and the data were analyzed using Microcal Origin software (Malvern Panalytical). LecA in the cell was titrated with ligand in TBS/Ca^2+ buffer supplemented with 5% DMSO at 25° C. Steep titration slopes were the result of high amount of protein present and the high binding affinity of the ligand (high ‘value of c’).
Isothermal titration calorimetry was performed on an iTC200 (Malvern Panalytical) and the data were analyzed using Microcal Origin software (Malvern Panalytical).

[6] = Matrix 2: 50% human blood plasma + 10% P. aeruginosa culture supernatant in PBS, pre-incubation 3 h
[7] = Matrix 2: 50% human blood plasma + 10% P. aeruginosa culture supernatant in PBS, pre-incubation <10 min
[8] = Matrix 4: 50% human blood plasma + 10% LB in PBS, pre-incubation 3 h
[9] = Matrix 4: 50% human blood plasma + 10% LB in PBS, pre-incubation <10 min
[10] = Matrix 1: PBS, pre-incubation 3 h
[11] = Matrix 1: PBS, pre-incubation <10 min
[12] = Matrix 3: 10% P. aeruginosa culture supernatant in PBS, pre-incubation 3 h
[13] = Matrix 3: 10% P. aeruginosa culture supernatant in PBS, pre-incubation <10 min
[14] = target LecA, calculated as Ki from IC50, read-out: Ki ± s.d.
[15] = target LecA, read-out: IC50 ± s.d.

Row | Structure (SMILES) | MIC (P. aeruginosa PA14; [6]) | MIC (P. aeruginosa PA14; [7]) | MIC (P. aeruginosa PA14; [8]) | MIC (P. aeruginosa PA14; [9]) | release of antibiotic cargo [2] | MIC (P. aeruginosa PA14; [10]) | MIC (P. aeruginosa PA14; [11]) | MIC (P. aeruginosa PA14; [12]) | MIC (P. aeruginosa PA14; [13]) | release of antibiotic cargo [4] | other results
1 | O=C(O)c1cn(C2CC2)c2cc(N3CCNCC3)c(F)cc2c1=O [Compound 1, Ciprofloxacin, reference compound] | 0.156 to 0.25 µM | 0.25 to 0.313 µM | 0.156 to 0.313 µM | 0.156 to 0.313 µM |  |  |  |  |  |  | 
2 | NC[C@@H]1CCN(c2nc3c(cc2F)c(=O)c(C(=O)O)cn3C2CC2)C1 [Compound 3, (S)-7-(3-(aminomethyl)-1-pyrrolidinyl)-1-cyclopropyl-6-fluoro-1,4-dihydro-4-oxo-1,8-naphthyridine-3-carboxylic acid, reference compound] |  |  |  |  |  |  |  |  |  |  | MIC (P. aeruginosa PA14; Pseudomonas aeruginosa, PA14, read-out: MIC (parent drug)): 0.29 to 1.45 µM (≈ 0.1 to 0.502 µg/mL)
3 | CC(C)C[C@H](N)C(=O)N[C@@H](C)C(=O)N1CCN(c2cc3c(cc2F)c(=O)c(C(=O)O)cn3C2CC2)CC1 [Compound 19, Leu-Ala-ciprofloxacin-conjugate] |  |  |  |  |  |  |  |  |  |  | release of free drug from dipeptide-conjugates [1]: very slow; also recorded: only slowly released their antibiotic cargo
4 | CC(C)C[C@H](NC(=O)CNC(=O)[C@H](C)NC(=O)c1ccc(S[C@@H]2O[C@H](CO)[C@H](O)[C@H](O)[C@H]2O)cc1)C(=O)N[C@@H](C)C(=O)N1CCN(c2cc3c(cc2F)c(=O)c(C(=O)O)cn3C2CC2)CC1 [Compound 24] | ≥25 µM |  | ≥25 µM | ≥25 µM | no significant release of their antibiotic cargo | >25 µM | >25 µM | ≥25 µM | ≥25 µM | do not release ciprofloxacin; also recorded: degradation stopped at the stage of the secondary amide Ala-ciprofloxacin | Ki (LecA [3]; [14]): 12.9 ± 1.12 µM; IC50 (LecA [3]; [15]): 31.7 ± 2.46 µM
5 | CC(C)C[C@H](NC(=O)CNC(=O)[C@H](C)NC(=O)c1ccc(S(=O)(=O)NC[C@H]2O[C@@H](C)[C@@H](O)[C@@H](O)[C@@H]2O)cc1)C(=O)N[C@@H](C)C(=O)N1CCN(c2cc3c(cc2F)c(=O)c(C(=O)O)cn3C2CC2)CC1 [Compound 25] | ≥25 µM |  | ≥25 µM | ≥25 µM | no significant release of their antibiotic cargo | >25 µM | >25 µM | ≥25 µM | ≥25 µM | do not release ciprofloxacin; also recorded: degradation stopped at the stage of the secondary amide Ala-ciprofloxacin | IC50 (LecB PAO1): 4.63 ± 1.99 µM; IC50 ± s.d. (LecB PAO1): one-digit micromolar range; Ki (LecB PAO1): 1.92 ± 0.93 µM; IC50 (LecB PA14): 1 ± 0.32 µM; Ki (LecB PA14; calculated as Ki from IC50, read-out: Ki ± s.d.): 0.36 ± 0.12 µM
6 | CC(C)CC(NC(=O)CNC(=O)C(C)NC(=O)c1ccc(SC2OC(CO)C(O)C(O)C2O)cc1)C(=O)NC(C)C(=O)NCC1CCN(c2cc3c(cc2F)c(=O)c(C(=O)O)cn3C2CC2)C1 (stereo not shown) [Compound 48] | 1.56 µM | 3.13 to 12.5 µM |  | >25 µM | no significant release of their antibiotic cargo | >25 µM | >25 µM | 1.56 to 3.13 µM | 1.56 to 3.13 µM | release their antibiotic cargo; also recorded: released a significant amount of their antibiotic cargo; also recorded: efficiently released their antibiotic cargo | Ki (LecA [3]; [14]): 11.2 ± 0.73 µM; IC50 (LecA [3]; [15]): 28 ± 1.61 µM
7 | CC(C)CC(NC(=O)CNC(=O)C(C)NC(=O)c1ccc(S(=O)(=O)NCC2OC(C)C(O)C(O)C2O)cc1)C(=O)NC(C)C(=O)NCC1CCN(c2cc3c(cc2F)c(=O)c(C(=O)O)cn3C2CC2)C1 (stereo not shown) [Compound 49] | 1.56 to 3.13 µM | 3.13 to 6.25 µM |  | ≥25 µM | no significant release of their antibiotic cargo | >25 µM | >25 µM | 1.56 to 6.25 µM | 3.13 to 6.25 µM | release their antibiotic cargo; also recorded: released a significant amount of their antibiotic cargo; also recorded: efficiently released their antibiotic cargo | MIC (P. aeruginosa PA14; Matrix 3, <10 min pre-incubation (text b309)): 3.13 µM (≈ 3.13 µg/mL); IC50 (LecB PAO1): 4.29 ± 2.99 µM; IC50 ± s.d. (LecB PAO1): one-digit micromolar range; Ki (LecB PAO1): 1.75 ± 1.4 µM
8 | CC(C)C[C@H](NC(=O)CNC(=O)[C@H](C)NC(=O)CCCCCn1cc(CCN(Cc2ccc(NC(=O)CCc3ccc(O[C@@H]4OC(CO)[C@H](O)C(O)C4O)cc3)cc2)Cc2ccc(NC(=O)CCc3ccc(O[C@@H]4OC(CO)[C@H](O)C(O)C4O)cc3)cc2)nn1)C(=O)N[C@@H](C)C(=O)N[C@H]1CCN(c2cc3c(cc2F)c(=O)c(C(=O)O)cn3C2CC2)C1 (stereo partly shown) [Compound 68] |  |  |  |  |  |  |  |  |  |  | Kd (LecA [5]): 0.036 ± 0.048 µM
9 | O=[N+]([O-])c1ccc(S[C@@H]2O[C@H](CO)[C@H](O)[C@H](O)[C@H]2O)cc1 [pNP-β-D-Gal, p-nitrophenyl-β-thio-galactoside, reference compound] |  |  |  |  |  |  |  |  |  |  | IC50 (LecA [3]): 61.9 ± 0.6 µM; Ki (LecA [3]): 26.9 ± 0.25 µM
